This data set is described as follows: Critical micelle concentration of surfactant. As to conditions: at 25° C. The class given is physicochemical.

SMILES strings stand for the structures.

For the molecule `CCCCCCCCCCCCOS(=O)(=O)[O-].[Na+]` [SDS, sodium dodecyl sulfate], the critical micelle concentration came out at 8.1 mM.

The values are drawn from US20020071869A1, “Microparticle composition and method” (priority 2000, published 2002).
